According to patent US10442807B2, “Aryl substituted bicyclic compounds as herbicides” (FMC Corporation, priority 2015, dated 2019):

What was measured:
Assay type in all cases: in vivo
[1] = tested on: barnyardgrass (Echinochloa crus-galli); experiment: Test A preemergence, directed soil spray, visual injury rating; conditions: approx. 10 d, 0 = no effect, 100 = complete control
Summary of the method: (§1)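 Rated visually against untreated controls after approx. 10 d in greenhouse, scale 0 = no effect, 100 = complete control. Seeded loam/sand blend given directed soil spray preemergence, or plants sprayed at one- to two-leaf stage, 2-10 cm tall; surfactant-containing non-phytotoxic solvent formulation.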

[2] = tested on: foxtail, giant (giant foxtail, Setaria faberii); experiment: as above; conditions: approx. 10 d, 0 = no effect, 100 = complete control
Summary of the method: as §1

kochia (Kochia scoparia) [3] = experiment: as above; conditions: approx. 10 d, 0 = no effect, 100 = complete control
Summary of the method: as §1

[4] = tested on: pigweed (Amaranthus retroflexus); experiment: as above; conditions: approx. 10 d, 0 = no effect, 100 = complete control
Summary of the method: as §1

[5] = tested on: ragweed (common ragweed, Ambrosia elation); experiment: as above; conditions: approx. 10 d, 0 = no effect, 100 = complete control
Summary of the method: as §1

[6] = tested on: ryegrass, Italian (Italian ryegrass, Lolium multiflorum); experiment: as above; conditions: approx. 10 d, 0 = no effect, 100 = complete control
Summary of the method: as §1

[7] = tested on: barnyardgrass (Echinochloa crus-galli); experiment: Test A postemergence application, visual injury rating; conditions: approx. 10 d, 0 = no effect, 100 = complete control
Summary of the method: as §1

[8] = tested on: blackgrass (Alopecurus myosuroides); experiment: as above; conditions: approx. 10 d, 0 = no effect, 100 = complete control
Summary of the method: as §1

corn (Zea mays) = experiment: as above; conditions: approx. 10 d, 0 = no effect, 100 = complete control
Summary of the method: as §1

[9] = tested on: foxtail, giant (giant foxtail, Setaria faberii); experiment: as above; conditions: approx. 10 d, 0 = no effect, 100 = complete control
Summary of the method: as §1

[10] = tested on: galium (catchweed bedstraw, Galium aparine); experiment: as above; conditions: approx. 10 d, 0 = no effect, 100 = complete control
Summary of the method: as §1

kochia (Kochia scoparia) [11] = experiment: as above; conditions: approx. 10 d, 0 = no effect, 100 = complete control
Summary of the method: as §1

[12] = tested on: pigweed (Amaranthus retroflexus); experiment: as above; conditions: approx. 10 d, 0 = no effect, 100 = complete control
Summary of the method: as §1

[13] = tested on: ragweed (common ragweed, Ambrosia elation); experiment: as above; conditions: approx. 10 d, 0 = no effect, 100 = complete control
Summary of the method: as §1

[14] = tested on: ryegrass, Italian (Italian ryegrass, Lolium multiflorum); experiment: as above; conditions: approx. 10 d, 0 = no effect, 100 = complete control
Summary of the method: as §1

[15] = tested on: wheat (Triticum aestivum); experiment: as above; conditions: approx. 10 d, 0 = no effect, 100 = complete control
Summary of the method: as §1

[16] = tested on: barnyardgrass (Echinochloa crus-galli); experiment: Test B flooded paddy test, visual plant response rating; conditions: 250 g ai/ha; applied to paddy water at 2-leaf stage; rated after 13 to 15 days; scale 0 to 100, 0 is no effect, 100 is complete control
Summary of the method: (§2)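 Ratings compare treated with control plants by eye, scored 0 (no effect) to 100 (complete control). Application is into paddy water 3 cm deep over soil, maintained at that level for 13–15 days under greenhouse conditions.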

[17] = tested on: ducksalad (Heteranthera limosa); experiment: as above; conditions: 250 g ai/ha; applied to paddy water at 2-leaf stage; rated after 13 to 15 days; scale 0 to 100, 0 is no effect, 100 is complete control
Summary of the method: as §2

rice (Oryza sativa) = experiment: as above; conditions: 250 g ai/ha; applied to paddy water at 2-leaf stage; rated after 13 to 15 days; scale 0 to 100, 0 is no effect, 100 is complete control
Summary of the method: as §2

[18] = tested on: sedge, umbrella (small-flower umbrella sedge, Cyperus difformis); experiment: as above; conditions: 250 g ai/ha; applied to paddy water at 2-leaf stage; rated after 13 to 15 days; scale 0 to 100, 0 is no effect, 100 is complete control
Summary of the method: as §2

## O=C(Nc1cccc(F)c1F)C1c2nnc(C(F)(F)F)n2CC1c1ccc(C(F)(F)F)cc1 (stereo not drawn) [Compound 22, N-(2,3-difluorophenyl)-6,7-dihydro-3-(trifluoromethyl)-6-[4-(trifluoromethyl)phenyl]-5H-pyrrolo[2,1-c]-1,2,4-triazole-7-carboxamide]
[1]; 125 g ai/ha
  Barnyardgrass plant response rating (0 to 100 scale): 0
[1]; 500 g ai/ha
  Barnyardgrass plant response rating (0 to 100 scale): 20
[2]; 125 g ai/ha
  Foxtail, Giant plant response rating (0 to 100 scale): 0
[2]; 500 g ai/ha
  Foxtail, Giant plant response rating (0 to 100 scale): 30
Kochia (Kochia scoparia) [3]; 125 g ai/ha
  Kochia plant response rating (0 to 100 scale): 0
Kochia (Kochia scoparia) [3]; 500 g ai/ha
  Kochia plant response rating (0 to 100 scale): 0
[4]; 125 g ai/ha
  Pigweed plant response rating (0 to 100 scale): 0
[4]; 500 g ai/ha
  Pigweed plant response rating (0 to 100 scale): 0
[5]; 125 g ai/ha
  Ragweed plant response rating (0 to 100 scale): 0
[5]; 500 g ai/ha
  Ragweed plant response rating (0 to 100 scale): 0
[6]; 125 g ai/ha
  Ryegrass, Italian plant response rating (0 to 100 scale): 0
[6]; 500 g ai/ha
  Ryegrass, Italian plant response rating (0 to 100 scale): 0
[7]; 125 g ai/ha
  Barnyardgrass plant response rating (0 to 100 scale): 0
[7]; 500 g ai/ha
  Barnyardgrass plant response rating (0 to 100 scale): 0
[8]; 125 g ai/ha
  Blackgrass plant response rating (0 to 100 scale): 0
[8]; 500 g ai/ha
  Blackgrass plant response rating (0 to 100 scale): 0
Corn (Zea mays); 125 g ai/ha
  Corn plant response rating (0 to 100 scale): 0
Corn (Zea mays); 500 g ai/ha
  Corn plant response rating (0 to 100 scale): 0
[9]; 125 g ai/ha
  Foxtail, Giant plant response rating (0 to 100 scale): 0
[9]; 500 g ai/ha
  Foxtail, Giant plant response rating (0 to 100 scale): 0
[10]; 125 g ai/ha
  Galium plant response rating (0 to 100 scale): 0
[10]; 500 g ai/ha
  Galium plant response rating (0 to 100 scale): 0
Kochia (Kochia scoparia) [11]; 125 g ai/ha
  Kochia plant response rating (0 to 100 scale): 0
Kochia (Kochia scoparia) [11]; 500 g ai/ha
  Kochia plant response rating (0 to 100 scale): 0
[12]; 125 g ai/ha
  Pigweed plant response rating (0 to 100 scale): 0
[12]; 500 g ai/ha
  Pigweed plant response rating (0 to 100 scale): 0
[13]; 125 g ai/ha
  Ragweed plant response rating (0 to 100 scale): 0
[13]; 500 g ai/ha
  Ragweed plant response rating (0 to 100 scale): 0
[14]; 125 g ai/ha
  Ryegrass, Italian plant response rating (0 to 100 scale): 0
[14]; 500 g ai/ha
  Ryegrass, Italian plant response rating (0 to 100 scale): 0
[15]; 125 g ai/ha
  Wheat plant response rating (0 to 100 scale): 0
[15]; 500 g ai/ha
  Wheat plant response rating (0 to 100 scale): 0
[16]
  Plant response rating, Flood, Barnyardgrass: 0
[17]
  Plant response rating, Flood, Ducksalad: 30
Rice (Oryza sativa)
  Plant response rating, Flood, Rice: 0
[18]
  Plant response rating, Flood, Sedge, Umbrella: 0

## CCc1ccc(C2Cn3c(C)nnc3C2C(=O)Nc2cccc(F)c2F)cc1 (stereo not drawn) [Compound 23]
[1]; 125 g ai/ha
  Barnyardgrass plant response rating (0 to 100 scale): 60
[1]; 500 g ai/ha
  Barnyardgrass plant response rating (0 to 100 scale): 90
[2]; 125 g ai/ha
  Foxtail, Giant plant response rating (0 to 100 scale): 70
[2]; 500 g ai/ha
  Foxtail, Giant plant response rating (0 to 100 scale): 90
Kochia (Kochia scoparia) [3]; 125 g ai/ha
  Kochia plant response rating (0 to 100 scale): 20
Kochia (Kochia scoparia) [3]; 500 g ai/ha
  Kochia plant response rating (0 to 100 scale): 40
[4]; 125 g ai/ha
  Pigweed plant response rating (0 to 100 scale): 0
[4]; 500 g ai/ha
  Pigweed plant response rating (0 to 100 scale): 20
[5]; 125 g ai/ha
  Ragweed plant response rating (0 to 100 scale): 0
[5]; 500 g ai/ha
  Ragweed plant response rating (0 to 100 scale): 0
[6]; 125 g ai/ha
  Ryegrass, Italian plant response rating (0 to 100 scale): 0
[6]; 500 g ai/ha
  Ryegrass, Italian plant response rating (0 to 100 scale): 0
[7]; 125 g ai/ha
  Barnyardgrass plant response rating (0 to 100 scale): 50
[7]; 500 g ai/ha
  Barnyardgrass plant response rating (0 to 100 scale): 90
[8]; 125 g ai/ha
  Blackgrass plant response rating (0 to 100 scale): 0
[8]; 500 g ai/ha
  Blackgrass plant response rating (0 to 100 scale): 20
Corn (Zea mays); 125 g ai/ha
  Corn plant response rating (0 to 100 scale): 0
Corn (Zea mays); 500 g ai/ha
  Corn plant response rating (0 to 100 scale): 20
[9]; 125 g ai/ha
  Foxtail, Giant plant response rating (0 to 100 scale): 30
[9]; 500 g ai/ha
  Foxtail, Giant plant response rating (0 to 100 scale): 70
[10]; 125 g ai/ha
  Galium plant response rating (0 to 100 scale): 0
[10]; 500 g ai/ha
  Galium plant response rating (0 to 100 scale): 30
Kochia (Kochia scoparia) [11]; 125 g ai/ha
  Kochia plant response rating (0 to 100 scale): 30
Kochia (Kochia scoparia) [11]; 500 g ai/ha
  Kochia plant response rating (0 to 100 scale): 30
[12]; 125 g ai/ha
  Pigweed plant response rating (0 to 100 scale): 0
[12]; 500 g ai/ha
  Pigweed plant response rating (0 to 100 scale): 0
[13]; 125 g ai/ha
  Ragweed plant response rating (0 to 100 scale): 0
[13]; 500 g ai/ha
  Ragweed plant response rating (0 to 100 scale): 0
[14]; 125 g ai/ha
  Ryegrass, Italian plant response rating (0 to 100 scale): 0
[14]; 500 g ai/ha
  Ryegrass, Italian plant response rating (0 to 100 scale): 0
[15]; 125 g ai/ha
  Wheat plant response rating (0 to 100 scale): 0
[15]; 500 g ai/ha
  Wheat plant response rating (0 to 100 scale): 0
[16]
  Plant response rating, Flood, Barnyardgrass: 0
[17]
  Plant response rating, Flood, Ducksalad: 80
Rice (Oryza sativa)
  Plant response rating, Flood, Rice: 0
[18]
  Plant response rating, Flood, Sedge, Umbrella: 0

## Cc1nnc2n1CC(c1ccc(C(F)(F)F)cc1)C2C(=O)Nc1ccccc1F (stereo not drawn) [Compound 24, N-(2-fluorophenyl)-6,7-dihydro-3-methyl-6-[4-(trifluoromethyl)phenyl]-5H-pyrrolo[2,1-c]-1,2,4-triazole-7-carboxamide]
[1]; 125 g ai/ha
  Barnyardgrass plant response rating (0 to 100 scale): 0
[1]; 500 g ai/ha
  Barnyardgrass plant response rating (0 to 100 scale): 40
[2]; 125 g ai/ha
  Foxtail, Giant plant response rating (0 to 100 scale): 30
[2]; 500 g ai/ha
  Foxtail, Giant plant response rating (0 to 100 scale): 90
Kochia (Kochia scoparia) [3]; 125 g ai/ha
  Kochia plant response rating (0 to 100 scale): 0
Kochia (Kochia scoparia) [3]; 500 g ai/ha
  Kochia plant response rating (0 to 100 scale): 60
[4]; 125 g ai/ha
  Pigweed plant response rating (0 to 100 scale): 0
[4]; 500 g ai/ha
  Pigweed plant response rating (0 to 100 scale): 20
[5]; 125 g ai/ha
  Ragweed plant response rating (0 to 100 scale): 0
[5]; 500 g ai/ha
  Ragweed plant response rating (0 to 100 scale): 30
[6]; 125 g ai/ha
  Ryegrass, Italian plant response rating (0 to 100 scale): 0
[6]; 500 g ai/ha
  Ryegrass, Italian plant response rating (0 to 100 scale): 30
[7]; 125 g ai/ha
  Barnyardgrass plant response rating (0 to 100 scale): 30
[7]; 500 g ai/ha
  Barnyardgrass plant response rating (0 to 100 scale): 80
[8]; 125 g ai/ha
  Blackgrass plant response rating (0 to 100 scale): 0
[8]; 500 g ai/ha
  Blackgrass plant response rating (0 to 100 scale): 50
Corn (Zea mays); 125 g ai/ha
  Corn plant response rating (0 to 100 scale): 0
Corn (Zea mays); 500 g ai/ha
  Corn plant response rating (0 to 100 scale): 40
[9]; 125 g ai/ha
  Foxtail, Giant plant response rating (0 to 100 scale): 40
[9]; 500 g ai/ha
  Foxtail, Giant plant response rating (0 to 100 scale): 80
[10]; 125 g ai/ha
  Galium plant response rating (0 to 100 scale): 0
[10]; 500 g ai/ha
  Galium plant response rating (0 to 100 scale): 60
Kochia (Kochia scoparia) [11]; 125 g ai/ha
  Kochia plant response rating (0 to 100 scale): 0
Kochia (Kochia scoparia) [11]; 500 g ai/ha
  Kochia plant response rating (0 to 100 scale): 0
[12]; 125 g ai/ha
  Pigweed plant response rating (0 to 100 scale): 0
[12]; 500 g ai/ha
  Pigweed plant response rating (0 to 100 scale): 20
[13]; 125 g ai/ha
  Ragweed plant response rating (0 to 100 scale): 0
[13]; 500 g ai/ha
  Ragweed plant response rating (0 to 100 scale): 0
[14]; 125 g ai/ha
  Ryegrass, Italian plant response rating (0 to 100 scale): 0
[14]; 500 g ai/ha
  Ryegrass, Italian plant response rating (0 to 100 scale): 20
[15]; 125 g ai/ha
  Wheat plant response rating (0 to 100 scale): 0
[15]; 500 g ai/ha
  Wheat plant response rating (0 to 100 scale): 30
[16]
  Plant response rating, Flood, Barnyardgrass: 0
[17]
  Plant response rating, Flood, Ducksalad: 0
Rice (Oryza sativa)
  Plant response rating, Flood, Rice: 0
[18]
  Plant response rating, Flood, Sedge, Umbrella: 0
